# B1: BenM^H110R, F211V, Y286N (protein, UniProt O68014 1-304, looked up, variant H110R F211V Y286N)
# HTH-type transcriptional …: MELRHLRYFVAVVEEQSFTKAADKLCIAQPPLSRQIQNLEEELGIQLLERGSRPVKTTPEGHFFYQYAIKLLSNVDQMVSMTKRIASVEKTIRIGFVGSLLFGLLPRIIRLYRQAHPNLRIELYEMGTKAQTEALKEGRIDAGFGRLKISDPAIKRTLLRNERLMVAVHASHPLNQMKDKGVHLNDLIDEKILLYPSSPKPNFSTHVMNIVSDHGLEPTKINEVREVQLALGLVAAGEGISLVPASTQSIQLFNLSYVPLLDPDAITPIYIAVRNMEESTYIYSLNETIRQIYAYEGFTEPPNW
# B2: ArgP: LTTR transcriptional activator from Escherichia coli, co-inducer L-arginine (protein, UniProt P0A8S1 1-297, looked up)
# HTH-type transcriptional …: MKRPDYRTLQALDAVIRERGFERAAQKLCITQSAVSQRIKQLENMFGQPLLVRTVPPRPTEQGQKLLALLRQVELLEEEWLGDEQTGSTPLLLSLAVNADSLATWLLPALAPVLADSPIRLNLQVEDETRTQERLRRGEVVGAVSIQHQALPSCLVDKLGALDYLFVSSKPFAEKYFPNGVTRSALLKAPVVAFDHLDDMHQAFLQQNFDLPPGSVPCHIVNSSEAFVQLARQGTTCCMIPHLQIEKELASGELIDLTPGLFQRRMLYWHRFAPESRMMRKVTDALLDYGHKVLRQD
# Legend:
# ArgP = biological target: T1, ArgP (Escherichia coli, UniProt P0A8S1); assay: L-arginine induction of ArgP-mediated GFP expression in yeast; assay type: cell-based; details: 30 mM L-arginine
# T1 construct: expressed in transfected cells; host or cells: Saccharomyces cerevisiae CEN.PK113-5A; REV1p or TDH3p, chromosomal integration (TISNO-66/-73)
# Procedure: (§1) Events were analyzed using FlowJo software (TreeStar Inc.).
# (§2) The genetic device developed in this study represents to the best of our knowledge the first example of transplanting a prokaryotic transcriptional activator into a eukaryotic chassis and successfully using it to activate gene expression without the need for modifying the protein beyond codon optimization. […] To test the generality of the biosensor design for onboarding other small-molecule binding transcriptional activators as biosensors in yeast we selected four other candidates from the LTTR family; FdeR from Herbaspirillum seropedicae, PcaQ from Sinorhizobium meliloti, ArgP from Escherichia coli, and MdcR from Klebsiella pneumonia, with co-inducers naringenin, protocatechuic acid (PCA), L-arginine, and malonic acid, respectively. In this proof-of-principle study we selected the four candidates based on a minimal set of information, including knowledge about operator sequences, experimental evidence for ligand-inducible control of target operons, and their mode-of-action within native chassis (ie. activation, FIG. 1). Furthermore all of these metabolites can passively diffuse across the yeast plasma membrane, with the exception of malonic acid, which requires the expression of the dicarboxylic acid transporter MAE1 from Schizosaccharomyces pombe. […]
# MdcR = assay: Malonic acid induction of MdcR-mediated GFP expression in yeast; assay type: cell-based; details: MdcR from TDH3 promoter, MAE1 transporter; 10 mM malonic acid
# Procedure: as §1, §2
# FdeR = assay: Naringenin induction of FdeR-mediated GFP expression in yeast; assay type: cell-based, Saccharomyces cerevisiae
# Text: Strains, chemicals and media. Saccharomyces cerevisiae CEN.PK102-5B (MATa ura3-52 his3Δ1 leu2-3/112 MAL2-8^c SUC2), CEN.PK113-5A (MATa, trp1 his3Δ1 leu2-3/112 MAL2-8^c SUC2) and CEN.PK113-7D (wild type, MATa MAL2-8^c SUC2) strains were obtained from Peter Kotter (Johann Wolfgang Goethe-University Frankfurt, Germany). In principal any other yeast strains may be used, such as one obtained from public repository EuroScarf. EasyClone plasmids used in this work are described in Jensen, N. B. et al. EasyClone: method for iterative chromosomal integration of multiple genes in Saccharomyces cerevisiae. FEMS Yeast Res. 14, 238-48 (2014). Escherichia coli strain DH5a was used as a host for cloning and plasmid propagation. The chemicals and Pfu TURBO DNA polymerase were commercially obtained (Sigma-Aldrich and Agilent Technologies Inc., respectively). All acids used were >97% in purity. S. cerevisiae cells were grown at 30° C. in synthetic complete medium as well as drop-out media and agar plates were prepared using pre-mixed drop-out powders (Sigma-Aldrich). Mineral medium was freshly prepared as described previously. For all media containing diacids, 1.4 mM of the individual diacids were dissolved in mineral medium and pH adjusted to 4.5 before sterile filtration. For CCM several dilutions were made to examine the performance of the CCM biosensor. For naringenin, mineral medium was supplemented with 0, 0.05, 0.10 or 0.20 mM naringenin, dissolved in ethanol, the final ethanol concentration for each medium was 2% (v/v), and the final pH of the medium was adjusted to 6.0. E. coli cells were grown at 37° C. in Luria-Bertani (LB) medium supplemented with 100 μg/mL ampicillin.
# as §1
# The genetic device developed in this study represents to the best of our knowledge the first example of transplanting a prokaryotic transcriptional activator into a eukaryotic chassis and successfully using it to activate gene expression without the need for modifying the protein beyond codon optimization. […]
# [1] = Solubility in growth medium; assay type: physicochemical; details: aqueous buffer, read-out: concentrations of naringenin soluble in growth medium
# yeast transcriptome = assay: Transcriptome analysis (RNA-seq) of yeast with or without BenM^H110R, F211V, Y286N; assay type: cell-based, Saccharomyces cerevisiae; details: 24 h cultivation in the presence of CCM
# Procedure: To study the impact of ligand-induced BenM on genome-wide gene expression, triplicate cultures of strains MeLS0138 and MeLS0284 were grown for 24 h at 30° C. in 50 ml mineral medium pH 4.5 with 1.4 mM CCM. […] Briefly, 15 ml samples of the six cultures were harvested into a pre-chilled 50 ml tube with crushed ice and then immediately centrifuged at 4° C., 4000×rpm for 5 min. Subsequently, the pellets were resuspended in 2 ml of RNAlater® Solution (Ambion, Life Technologies) and incubated on ice for 1 h. Next, cells were pelleted by centrifugation (12,000×rpm for 10 s) and transferred to liquid nitrogen, and stored at −80° C. until further analysis. Total RNA extraction was performed using RNeasy® Mini Kit (QIAGEN). […] The quantity and quality of the RNA samples were measured using Qubit 2.0 Fluorometer using the Qubit RNA BR Assay (Thermo Fisher Scientific) and Agilent 2100 Bioanalyzer using the RNA 6000 Nano Kit (Agilent Technologies), respectively. For sequencing we used 3 μg of total RNA as input for TruSeq® Stranded mRNA Sample Preparation kit prior to sequencing on the MiSeq System using MiSeq Reagent Kit v3 150 cycles at a 2×75 bp read length configuration (Illumina) obtaining 38 M reads. […]
# [2] = test system: 209 bp_CYC1p_T1 promoter with MdcO or ArgO; assay: Cross-reactivity of LTTRs ArgP and MdcR with operators MdcO and ArgO (flow cytometry); assay type: cell-based, Saccharomyces cerevisiae; details: ArgP and MdcR with 209 bp_CYC1p_T1 carrying MdcO or ArgO
# Text: Many of the characterized LTTRs regulate operons by binding prototypic LTTR box patterns 5′-T-N11-A-3′ and 5′-TTA-N7/8-GAA-3′. In addition to transcriptional orthogonality (FIG. 3b), we therefore further tested if individual LTTRs would cross-react with operators for another LTTR. For this purpose, we expressed LTTRs ArgP and MdcR together with the 209 bp_CYC1p_T1 promoter with operators for MdcR (herein MdcO) or ArgP (herein ArgO) driving the expression of GFP. As controls we tested GFP expression from 209 bp_CYC1p_T1 promoter with MdcO or ArgO without expression of LTTRs. […] This is in agreement with another study on cross-reactivity between promoter and transcriptional regulators of the TetR family, and the fact that LTTR residues in both the conserved N-terminal DNA-binding domains and the divergent EBDs are important for DNA-binding.
# 209 bp_CYC1p_T1 promoter = assay: LTTR-mediated activation of GFP expression from 209 bp_CYC1p_T1 reporter promoter in yeast, without ligand; assay type: cell-based, Saccharomyces cerevisiae; details: LTTR expressed from weak REV1p promoter
# Procedure: as §1, §2
molecule,measurement,setting,value
N=C(N)NCCC[C@H](N)C(=O)O [L-arginine],ligand-inducible increase in GFP expression,ArgP; ArgP expression controlled by REV1p,significant ligand-inducible increase in GFP expression
same,induction of GFP expression upon addition of cognate inducer,ArgP; ArgP from TDH3 promoter,further induce GFP expression
O=C(O)CC(=O)O [malonic acid],induction of GFP expression upon addition of cognate inducer,MdcR,further induce GFP expression
O=C1C[C@@H](c2ccc(O)cc2)Oc2cc(O)cc(O)c21 [naringenin],induction of GFP expression upon addition of cognate inducer,"FdeR; FdeR from TDH3 promoter, 0.2 mM naringenin",further induce GFP expression
same,maximum increase in GFP expression,"FdeR; FdeR from strong TDH3 promoter, 0.2 mM naringenin, 24 h",1.7 fold
same,induction of GFP expression,"FdeR; FdeR from weak REV1 promoter, any of the tested naringenin concentrations",did not support induction of GFP expression
same,solubility,[1],< 200 µM
B1,"average GFP transcript abundance, strain MeLS0284 compared to strain MeLS0138",yeast transcriptome,approximately 27 fold
same,decrease in expression level of TCS3,"yeast transcriptome; P<0.05, >2-fold cut-off",2.3 ×
B2,cross-reaction of LTTR with operator for another LTTR,[2],specificity between LTTR transcriptional activators and their inferred operator
same,activation of GFP expression compared to yeast cells without expression of an LTTR,209 bp_CYC1p_T1 promoter,2.2 ×

# From patent US20190185865A1, “USE OF PROKARYOTIC TRANSCRIPTIONAL ACTIVATORS AS METABOLITE BIOSENSORS IN EUKARYOTIC CELLS” (Danmarks Tekniske Universitet, priority 2016, published 2019)
